In article PMC13184981, “Discovery and Development of a Potent LIMK2 Isoform-Specific Degrader” (ACS Chemical Biology, 2026):

What was measured:
[1] = Microsomal stability assay; assay type: in vitro ADME; conditions: rat liver microsomes
Protocol: The solubilized test compound (5 μL, final concentration 10 μM) was preincubated at 37 °C in 432 μL of 0.1 M phosphate buffer (pH 7.4) together with 50 μL of an NADPH-regenerating system containing 30 mM glucose-6-phosphate, 4 U/mL glucose-6-phosphate dehydrogenase, 10 mM NADP, and 30 mM MgCl2. After 5 min, the reaction was initiated by adding 13 μL of rat liver microsomes (Sprague–Dawley, Invitrogen; 20 mg mL^–1 protein in 0.1 M phosphate buffer) and incubated in a shaking water bath at 37 °C. The reaction was quenched at 0, 15, 30, and 60 min by adding 500 μL of ice-cold methanol. Samples were centrifuged at 5,000 × g for 5 min at 4 °C, and the supernatants were analyzed by HPLC to quantify the remaining parent compound. HPLC conditions were as follows: mobile phase composed of methanol (40–90%) and water with 0.1% formic acid (10–60%), optimized for the test compound; flow rate 1 mL/min; stationary phase Purospher STAR RP-18 column (5 μm, 125 × 4 mm) with a guard column (5 μm, 4 × 4 mm); detection wavelengths at 254 and 280 nm; injection volume 50 μL. […] Compound concentrations were determined using an external calibration curve. Data are expressed as mean ± SEM of the remaining parent compound from three independent experiments.

EGFP–LIMK2 = target: T1, EGFP–LIMK2 (Homo sapiens, UniProt P53671); experiment: EGFP-LIMK2 depletion live-cell assay (Incucyte); assay type: cell-based
T1 construct: P2A remnant (from EGFP-LIMK2-P2A-mCherry; that residues stay on LIMK2 after self-cleavage is own knowledge) (C); expressed in transfected cells; host or cells: HuCCT1 (lentiviral transduction, doxycycline-inducible pCW57 vector)
T1 sequence (P53671 whole entry): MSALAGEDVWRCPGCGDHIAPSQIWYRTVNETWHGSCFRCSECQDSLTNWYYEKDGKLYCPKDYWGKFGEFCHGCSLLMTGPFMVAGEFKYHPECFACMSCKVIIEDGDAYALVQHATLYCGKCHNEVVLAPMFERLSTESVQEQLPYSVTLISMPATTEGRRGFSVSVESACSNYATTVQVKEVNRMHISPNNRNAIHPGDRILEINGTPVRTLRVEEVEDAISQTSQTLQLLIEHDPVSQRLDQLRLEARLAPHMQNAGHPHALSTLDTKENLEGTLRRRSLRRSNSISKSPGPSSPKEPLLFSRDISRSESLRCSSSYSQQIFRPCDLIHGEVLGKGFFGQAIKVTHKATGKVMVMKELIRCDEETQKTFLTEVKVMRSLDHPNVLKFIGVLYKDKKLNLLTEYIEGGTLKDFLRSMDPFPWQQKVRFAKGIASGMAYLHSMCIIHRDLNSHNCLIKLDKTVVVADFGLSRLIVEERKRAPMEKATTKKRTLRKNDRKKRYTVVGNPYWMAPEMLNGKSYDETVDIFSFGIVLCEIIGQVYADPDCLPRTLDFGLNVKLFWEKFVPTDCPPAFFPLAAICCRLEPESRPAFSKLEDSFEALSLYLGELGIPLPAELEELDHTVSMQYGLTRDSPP

LIMK2 = LIMK2 (Homo sapiens, UniProt P53671); experiment: NanoBRET cellular target engagement, LIMK2; assay type: cell-based; set-up: host or cells: HEK293T
LIMK2, sequence (P53671 whole entry): as above
Protocol: Gene encoding LIMK1 (Promega, NV3391) and LIMK2 (Promega, NV1531), CRBN (Promega, N2741) proteins cloned in frame with NanoLuc fusion tag at the C-terminus, were transfected into HEK293T cells using FuGENE HD (Promega, E2312) following manufacture’s protocol and proteins were allowed to express for 20 h at 37 °C and 5% CO2. […] The 10 μL of transfected cells after trypsinization and resuspending in Opti-MEM (Life Technologies, 31985070) were dispensed into each well of the 384-well plate (Greiner 781207) at a cell density of 2 × 10^5 cells/mL. For dose–response BRET measurements, compounds at various concentrations, immediately followed by Tracer K10 (Promega, Tracer DB ID: T000008) for LIMK1 and LIMK2, CRBN Tracer (Promega, Tracer DB ID: T000018) for CRBN at an optimum KD concentration chosen from TracerDB (tracerdb.org), were pipetted using an Echo acoustic dispenser (Labcyte). The system was allowed to equilibrate for 2 h at 37 °C and 5% CO2 before BRET measurements. To measure BRET signal, the NanoBRET NanoGlo Substrate (Promega, N1573) was added as per the manufacturer’s protocol, and filtered luminescence was measured on a PHERAstar plate reader (BMG Labtech) equipped with a luminescence filter pair (450 nm BP filter (donor) and 610 nm LP filter (acceptor)). For lysed NanoBRET measurement, 25 nL of Digitonin (0.05 μg/μL) was pipetted to each well using Labcyte, and the plate was incubated for 5 min at 37 °C and 5% CO2. After incubation, the BRET signals were measured by a PHERAstar plate reader following the same procedure as intact NanoBRET measurement. […] The BRET ratios are normalized to both of them in the prism output data file. Competitive displacement data were then normalized to controls and were graphed using GraphPad Prism 9 software employing a normalized 3-parameter curve fit with the following equation: Y = 100/(1 + 10̂(X – logIC50)).

HEK293T cells = experiment: CellTiter-Glo 2.0 cell viability assay; assay type: cell-based, human; conditions: 24-h treatment, 25 nM to 20 µM
Protocol: The effects of the PROTAC on cell viability were determined using the CellTiter-Glo 2.0 Cell Viability Assay (Promega, G9241) following the manufacturer’s protocol. […] 40 μL of assay reagent was added and incubated for 10 min at RT. Filtered luminescence was measured using a PHERAstar plate reader (BMG Labtech), and data were analyzed using GraphPad Prism 9.

[2] = target: T2, FLAG-tagged CRBN with MOLT-4 cell lysate (Homo sapiens, UniProt P53671+Q96SW2); experiment: PROXICapture pull-down proteomics; assay type: binding; conditions: 5 μM PROTAC
T2 construct: LIMK2: endogenous, MOLT-4 cell lysate
T2 sequence (Q96SW2 whole entry): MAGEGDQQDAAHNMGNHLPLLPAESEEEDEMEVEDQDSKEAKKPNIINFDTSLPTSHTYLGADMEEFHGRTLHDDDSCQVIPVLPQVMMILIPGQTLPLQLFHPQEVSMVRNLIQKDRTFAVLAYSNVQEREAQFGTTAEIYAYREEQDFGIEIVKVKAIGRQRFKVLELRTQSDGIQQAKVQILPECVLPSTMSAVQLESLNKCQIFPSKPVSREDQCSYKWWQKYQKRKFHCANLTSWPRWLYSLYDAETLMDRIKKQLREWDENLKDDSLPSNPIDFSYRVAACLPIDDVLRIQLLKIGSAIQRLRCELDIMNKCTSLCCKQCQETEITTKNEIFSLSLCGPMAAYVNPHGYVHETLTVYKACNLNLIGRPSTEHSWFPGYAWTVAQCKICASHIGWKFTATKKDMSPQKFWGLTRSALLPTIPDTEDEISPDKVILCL
T2 sequence (P53671 whole entry): as the sequence (P53671 whole entry) above
Protocol: Purified FLAG-CRBN was conjugated to FLAG beads (Chromotek, cat. no. ffak) in coimmunoprecipitation buffer (50 mM Tris pH-7.5, 120 mM NaCl, 1% NP40, 0.5 mM EDTA) for 1 h at 4 °C on a rotating shaker, before addition of DMSO or 5 μM THNAN69 for 30 min at 4 °C. Subsequently, ∼ 1 mg of freshly prepared protein lysate from Molt4 cells was added to the prepared beads in IP lysate buffer (50 mM Tris pH-7.5, 120 mM NaCl, 1% NP40, 0.5 mM EDTA, protease inhibitors, phosphatase inhibitors and NEM) for 1 h at 4 °C while rotating. The beads were washed three times with IP buffer and afterward used either for Western blotting or trypsin digestion followed by LC-MS/MS analysis.
Protein-bound flag-CRBN beads were incubated with 20 μL SDC buffer (3% sodium deoxycholate in 50 mM Tris-HCl, pH 8.5) and heated for 5 min at 65 °C, and the supernatant was collected. This step was repeated one more time to get an elute of 40 μL. Further, reduction and alkylation were performed using 5 μL of 5 mM TCEP, 20 mM CAA in 50 mM Tris-HCl, pH 8.5, at 95 °C for 10 min. 500 ng of trypsin in 45 μL 50 mM Tris-HCl (pH 8.5) was added to each sample and kept for digestion at 37 °C overnight. […]
MS raw data were analyzed using FragPipe v21.1, with MSFragger v.4.0 and Philosopher v.5.1.0. […] Label-free quantification was performed using IonQuant v.1.10.27. […]

Structure (SMILES): Cc1c(OCc2cn(CCCCC(=O)Nc3ncc(-c4cc(C(F)F)nn4-c4c(Cl)cccc4Cl)s3)nn2)cccc1N1CCC(=O)NC1=O [22b]
- metabolic stability (in words) [1]: favorable metabolic stability
- parent PROTAC remaining ([1]; 60 min, 10 μM, HPLC): 85%
- Dmax (EGFP–LIMK2; 0.01 nM PROTAC): 4.5%
- Dmax (EGFP–LIMK2; 10000 nM PROTAC): 96.1%
- IC50 (LIMK2): 80 nM
- LIMK2 binary IC50 stronger than LIMK1 (LIMK2; NanoBRET, LIMK2 vs LIMK1): 5 fold
- cytotoxic effects (HEK293T cells): no cytotoxic effects
- proteins enriched by CRBN:PROTAC pull-down [2]: selectively recruited and enriched LIMK2 but not LIMK1
